Source: patent publication US8658646B2, “Pyrrolopyrazine kinase inhibitors” (Hoffmann-LaRoche Inc., priority 2011, dated 2014)
pIC50: −log10 of the molar value.

These compounds were tested against T1, recombinant human SYK360-635 (Homo sapiens, UniProt P43405) (assay: Determination of IC50 of Spleen Tyrosine Kinase (SYK) inhibition, 33P ATP filtration assay). Details: SYK aa 360-635 0.5 nM; ATP 20 μM, peptide 5 μM, 0.1% BSA; read-out: SYK_ENZYME_FILTRATION/v1, BSA.
T1 construct: made in house
Assay type: biochemical
With `COc1ccc2c(c1)c(-c1cnc3[nH]cc(C(=O)N[C@@H]4CCCC[C@@H]4N)c3n1)nn2C` [Example I-291, 2-(5-Methoxy-1-methyl-1H-indazol-3-yl)-5H-pyrrolo[2,3-b]pyrazine-7-carboxylic acid ((1R,2S)-2-amino-cyclohexyl)-amide] the pIC50 was 6.00. For `CC(C)NC(=O)c1c[nH]c2ncc(-c3c4c(n(C)[n+]3[O-])CCCC4)nc12` [Example I-293, 2-(1-Methyl-2-oxy-4,5,6,7-tetrahydro-1H-indazol-3-yl)-5H-pyrrolo[2,3-b]pyrazine-7-carboxylic acid isopropylamide], the pIC50 was 5.57. Compound `Cn1c2c(c(-c3cnc4[nH]cc(C(=O)NC(C)(C)C)c4n3)[n+]1[O-])CCCC2` [Example I-294, 2-(1-Methyl-2-oxy-4,5,6,7-tetrahydro-1H-indazol-3-yl)-5H-pyrrolo[2,3-b]pyrazine-7-carboxylic acid tert-butylamide] has a pIC50 of 5.38. `Cn1nc(-c2cnc3[nH]cc(C(=O)NC(C)(C)C)c3n2)c2c1CCCC2` [Example I-295, 2-(1-Methyl-4,5,6,7-tetrahydro-1H-indazol-3-yl)-5H-pyrrolo[2,3-b]pyrazine-7-carboxylic acid tert-butylamide] showed a pIC50 of 7.90. Work on `CC(C)(C)NC(=O)c1c[nH]c2ncc(-c3nn(CCC4OCCCO4)c4ccc(OC(F)F)cc34)nc12` [Example I-297, 2-[5-Difluoromethoxy-1-(2-[1,3]dioxan-2-yl-ethyl)-1H-indazol-3-yl]-5H-pyrrolo[2,3-b]pyrazine-7-carboxylic acid tert-butylamide] yielded a pIC50 of 7.55. For `CC(C)(C)NC(=O)c1c[nH]c2ncc(-c3nn(CCCO)c4ccc(OC(F)F)cc34)nc12` [Example I-298, 2-[5-Difluoromethoxy-1-(3-hydroxy-propyl)-1H-indazol-3-yl]-5H-pyrrolo[2,3-b]pyrazine-7-carboxylic acid tert-butylamide], the pIC50 was 8.42. With `CC(C)(C)NC(=O)c1c[nH]c2ncc(-c3nn(CCCN4CC(O)C4)c4ccc(OC(F)F)cc34)nc12` [Example I-300, 2-{5-Difluoromethoxy-1-[3-(3-hydroxy-azetidin-1-yl)-propyl]-1H-indazol-3-yl}-5H-pyrrolo[2,3-b]pyrazine-7-carboxylic acid tert-butylamide] the pIC50 was 8.51. In the case of `CC(C)(C)NC(=O)c1c[nH]c2ncc(-c3nn(CCC4CNC4)c4cc(F)ccc34)nc12` [Example I-302, 2-[1-(2-Azetidin-3-yl-ethyl)-6-fluoro-1H-indazol-3-yl]-5H-pyrrolo[2,3-b]pyrazine-7-carboxylic acid tert-butylamide], the pIC50 was 8.07. `Cc1cc2cccc(-c3cnc4[nH]cc(C(=O)NC(C)(C)C)c4n3)c2[nH]1` [Example I-303, 2-(2-Methyl-1H-indol-7-yl)-5H-pyrrolo[2,3-b]pyrazine-7-carboxylic acid tert-butylamide] was tested, and the pIC50 was 7.19. `CC(C)(C)NC(=O)c1c[nH]c2ncc(-c3cccc4cc[nH]c34)nc12` [Example I-304, 2-(1H-Indol-7-yl)-5H-pyrrolo[2,3-b]pyrazine-7-carboxylic acid tert-butylamide] was tested, and the pIC50 was 8.13. Work on `CC(C)NC(=O)c1c[nH]c2ncc(-c3n[nH]c4cc(Cl)ccc34)nc12` [Example I-306, 2-(6-Chloro-1H-indazol-3-yl)-5H-pyrrolo[2,3-b]pyrazine-7-carboxylic acid isopropylamide] yielded a pIC50 of 8.14. `CCn1nc(-c2cnc3[nH]cc(C(=O)NC(C)C)c3n2)c2ccc(Cl)cc21` [Example I-307, 2-(6-Chloro-1-ethyl-1H-indazol-3-yl)-5H-pyrrolo[2,3-b]pyrazine-7-carboxylic acid isopropylamide] gave a pIC50 of 7.49. Work on `CC(C)NC(=O)c1c[nH]c2ncc(-c3nn(Cc4ccccc4)c4cc(Cl)ccc34)nc12` [Example I-308, 2-(1-Benzyl-6-chloro-1H-indazol-3-yl)-5H-pyrrolo[2,3-b]pyrazine-7-carboxylic acid isopropylamide] yielded a pIC50 of 6.07. In the case of `NC(=O)c1c[nH]c2ncc(-c3nn(CC(=O)N4CCOCC4)c4cc(F)ccc34)nc12` [Example I-314, 2-[6-Fluoro-1-(2-morpholin-4-yl-2-oxo-ethyl)-1H-indazol-3-yl]-5H-pyrrolo[2,3-b]pyrazine-7-carboxylic acid amide], the pIC50 was 6.81. Work on `Cn1nc(-c2cnc3[nH]cc(C(=O)NC(CO)CO)c3n2)c2ccc(Cl)cc21` [Example I-316, 2-(6-Chloro-1-methyl-1H-indazol-3-yl)-5H-pyrrolo[2,3-b]pyrazine-7-carboxylic acid (2-hydroxy-1-hydroxymethyl-ethyl)-amide] yielded a pIC50 of 7.84. Work on `Cn1nc(-c2cnc3[nH]cc(C(=O)NCC4CC4)c3n2)c2ccc(Cl)cc21` [Example I-317, 2-(6-Chloro-1-methyl-1H-indazol-3-yl)-5H-pyrrolo[2,3-b]pyrazine-7-carboxylic acid cyclopropylmethyl-amide] yielded a pIC50 of 7.95. Work on `CC(C)(CO)NC(=O)c1c[nH]c2ncc(-n3ncc4cc(Cl)ccc43)nc12` [Example I-318, 2-(5-Chloro-indazol-1-yl)-5H-pyrrolo[2,3-b]pyrazine-7-carboxylic acid (2-hydroxy-1,1-dimethyl-ethyl)-amide] yielded a pIC50 of 7.25. With `Cc1nn(-c2cnc3[nH]cc(C(=O)NC(C)(C)CO)c3n2)c2ccc(Cl)cc12` [Example I-319, 2-(5-Chloro-3-methyl-indazol-1-yl)-5H-pyrrolo[2,3-b]pyrazine-7 carboxylic acid (2-hydroxy-1,1-dimethyl-ethyl)-amide] the pIC50 was 7.46. With `CC(C)(CO)NC(=O)c1c[nH]c2ncc(-n3ncc4cc(F)ccc43)nc12` [Example I-320, 2-(5-Fluoro-indazol-1-yl)-5H-pyrrolo[2,3-b]pyrazine-7-carboxylic acid (2-hydroxy-1,1-dimethyl-ethyl)-amide] the pIC50 was 7.25. `CC(C)(CO)NC(=O)c1c[nH]c2ncc(-n3ncc4ccccc43)nc12` [Example I-321, 2-Indazol-1-yl-5H-pyrrolo[2,3-b]pyrazine-7-carboxylic acid (2-hydroxy-1,1-dimethyl-ethyl)-amide] gave a pIC50 of 6.82. `COc1ccc2c(cnn2-c2cnc3[nH]cc(C(=O)NC(C)(C)C)c3n2)c1` [Example I-323, 2-(5-Methoxy-indazol-1-yl)-5H-pyrrolo[2,3-b]pyrazine-7-carboxylic acid tert-butylamide] gave a pIC50 of 7.59. `CC(C)(C)NC(=O)c1c[nH]c2ncc(-n3ncc4cc(Cl)ccc43)nc12` [Example I-324, 2-(5-Chloro-indazol-1-yl)-5H-pyrrolo[2,3-b]pyrazine-7-carboxylic acid tert-butylamide] gave a pIC50 of 6.97. `CC(C)(C)NC(=O)c1c[nH]c2ncc(-n3ncc4cc(OC(F)F)ccc43)nc12` [Example I-325, 2-(5-Difluoromethoxy-indazol-1-yl)-5H-pyrrolo[2,3-b]pyrazine-7-carboxylic acid tert-butylamide] gave a pIC50 of 7.43. With `CC(C)(C)NC(=O)c1c[nH]c2ncc(-n3ncc4cc(F)ccc43)nc12` [Example I-326, 2-(5-Fluoro-indazol-1-yl)-5H-pyrrolo[2,3-b]pyrazine-7-carboxylic acid tert-butylamide] the pIC50 was 7.36. `CC(C)(C)NC(=O)c1c[nH]c2ncc(-n3ncc4cc(F)c(F)cc43)nc12` [Example I-327, 2-(5,6-Difluoro-indazol-1-yl)-5H-pyrrolo[2,3-b]pyrazine-7-carboxylic acid tert-butylamide] was tested, and the pIC50 was 6.66. `CC(C)(C)NC(=O)c1c[nH]c2ncc(-c3nccc4cc[nH]c34)nc12` [Example I-328, 2-(1H-Pyrrolo[2,3-c]pyridin-7-yl)-5H-pyrrolo[2,3-b]pyrazine-7 carboxylic acid tert-butylamide] was tested, and the pIC50 was 6.01. Compound `CC(C)(C)NC(=O)c1c[nH]c2ncc(-n3ncc4ccc(Cl)cc43)nc12` [Example I-329, 2-(6-Chloro-indazol-1-yl)-5H-pyrrolo[2,3-b]pyrazine-7-carboxylic acid tert-butylamide] has a pIC50 of 7.09. For `CC(C)(C)NC(=O)c1c[nH]c2ncc(-n3ncc4ccc(C(F)(F)F)cc43)nc12` [Example I-330, 2-(6-Trifluoromethyl-indazol-1-yl)-5H-pyrrolo[2,3-b]pyrazine-7-carboxylic acid tert-butylamide], the pIC50 was 6.01. In the case of `Cc1ccc2cnn(-c3cnc4[nH]cc(C(=O)NC(C)(C)C)c4n3)c2c1` [Example I-331, 2-(6-Methyl-indazol-1-yl)-5H-pyrrolo[2,3-b]pyrazine-7-carboxylic acid tert-butylamide], the pIC50 was 7.16. `CC(C)(C)NC(=O)c1c[nH]c2ncc(-n3ncc4ccc(F)cc43)nc12` [Example I-332, 2-(6-Fluoro-indazol-1-yl)-5H-pyrrolo[2,3-b]pyrazine-7-carboxylic acid tert-butylamide] gave a pIC50 of 6.97. `Cc1ccc2c(cnn2-c2cnc3[nH]cc(C(=O)NC(C)(C)C)c3n2)c1` [Example I-333, 2-(5-Methyl-indazol-1-yl)-5H-pyrrolo[2,3-b]pyrazine-7-carboxylic acid tert-butylamide] was tested, and the pIC50 was 7.19. In the case of `CC(C)(C)NC(=O)c1c[nH]c2ncc(-n3nc(C(F)(F)F)c4c3CCC4)nc12` [Example I-334, 2-(3-Trifluoromethyl-5,6-dihydro-4H-cyclopentapyrazol-1-yl)-5H-pyrrolo[2,3-b]pyrazine-7-carboxylic acid tert-butylamide], the pIC50 was 5.74. Compound `CC(C)(C)NC(=O)c1c[nH]c2ncc(-n3nc(Cl)c4ccccc43)nc12` [Example I-335, 2-(3-Chloro-indazol-1-yl)-5H-pyrrolo[2,3-b]pyrazine-7-carboxylic acid tert-butylamide] has a pIC50 of 7.21. Work on `CC(C)(C)NC(=O)c1c[nH]c2ncc(-n3ncc4cc(C(F)(F)F)ccc43)nc12` [Example I-337, 2-(5-Trifluoromethyl-indazol-1-yl)-5H-pyrrolo[2,3-b]pyrazine-7-carboxylic acid tert-butylamide] yielded a pIC50 of 6.23. `CN(C)C(=O)CCn1nc(-c2cnc3[nH]cc(C(=O)NC(C)(C)C)c3n2)c2cc(OC(F)F)ccc21` [Example I-339, 2-[5-Difluoromethoxy-1-(2-dimethylcarbamoyl-ethyl)-1H-indazol-3-yl]-5H-pyrrolo[2,3-b]pyrazine-7-carboxylic acid tert-butylamide] was tested, and the pIC50 was 7.75.
